# In patent US8084203B2, “Methods for the determination of telomere length in a semi-automatic manner of every single cell in a immobilized cell population” (Fundacion Centro Nacional de Investigaciones Oncologicas …, priority 2008, dated 2011):
# System: epidermal stem cell
# Excerpt: Unless otherwise specified, all mice used in this study were males of approximately 2 months of age and from a C57BL6 genetic background. Mice of a FVB genetic background (2 months-old) were also used in Supplementary FIG. S1. Generation and characteristics of the Terc−/− and the K15-EGFP mice were previously described (Morris et al., 2004; Blasco et al., 1997).
# To induce epidermal stem cell “mobilization” (activation, migration and proliferation), tail skin in the telogen (resting) phase of the hair cycle was topically treated every 48 h with TPA (20 nmol in acetone) for a total of four doses. Control mice of each genotype were treated with acetone alone. 24-hours after the last TPA treatment, mice were sacrificed and the tail skin analysed.
# For telomere length analyses, samples from mouse tail and back skin, small intestine, cornea, testis and brain were harvested and fixed o/n in neutralbuffered formalin at 4° C., dehydrated through graded alcohols and xylene, and embedded in paraffin. Prior to embedding, dissected skin was cut parallel to the spine in order to obtain longitudinal hair follicle sections. The intestinal tract was flushed with PBS and rolled up in a compact circle using longitudinally oriented jejunal sections for analysis. For cornea and testis analyses, whole eyes and testis were cut in half prior to dehydration. Finally, brain was coronal-dissected to harvest the rostral hippocampus. In all cases, […] sections were used for QFISH and immunostaining analyses.
# For Q-FISH, paraffin-embedded tissue sections were hybridized with a PNA-tel Cy3-labelled probe and telomere length was determined as described (González-Suárez et al., 2000; Muñoz et al., 2005; Zijlmans et al., 1997). Slides were deparaffinized in three xylene washes (3 m each), then treated for 3 m with a 100, 95 and 70% ethanol series, followed by telomere Q-FISH protocol performed as described (Samper et al., 2000). DAPI, Cy3 signals were acquired simultaneously into separate channels using a confocal ultraspectral microscope (Leica TCS-SP2-A-OBS-UV) using a PL APO 20×/0.70 PH2 as lens with Leica LCS software and maximum projections from image stacks (10 sections at steps 1.0 μm) were generated for image quantification. The DPSS-561 laser (Cy3 laser) was hold at a constant intensity to capture all the mouse tissues images.
# High throughput quantitative image analysis was performed on confocal images using the Metamorph platform (version 6.3r6; Molecular Devices, Union City, Calif.). The DAPI image was used to define the nuclear area and the Cy3 image to quantify of telomere fluorescence. In all cases, background noise was subtracted from each image prior to making […] measurements. The DAPI images were signal-intensity thresholded, segmented and converted to 1-bit binary image. The binary DAPI mask was applied to the matching Cy3 to obtain a combined image with telomere fluorescence information for each
# nucleus. Cy3 fluorescence intensity (telomere fluorescence) was measured as “average gray values” (total gray value/nuclei area) units (arbitrary units of fluorescence). These “average telomere fluorescence” values always represent the average Cy3 pixel intensity for the total nuclear area, and not the average value of individual telomere spot intensities, therefore ruling out that differences in nuclear size may influence telomere length measurements. A code of four colours was used to classify the nuclei according to their average telomere fluorescence. Telomere fluorescence ranges were initially set up to allocate in each range roughly ¼ of the total cells of a given tissue in wild type mice of 2 months of age. […] Telomere fluorescence ranges of a given tissue obtained in this manner were then maintained constant between genotypes, treatment and ages to facilitate comparisons.
# [1] = wild-type mice, TPA-treated vs untreated, FIG. 1d, significant
# [2] = wild-type mice, upon TPA treatment, FIG. 6
structure (smiles),measurement,setting,value
CCCCCCCCCCCCCC(=O)O[C@@H]1[C@@H](C)[C@@]2(O)[C@@H](C=C(CO)C[C@]3(O)C(=O)C(C)=C[C@@H]23)[C@H]2C(C)(C)[C@]12OC(C)=O [TPA],percentage of cells with the longest telomeres at the TA compartments and the interfollicular epidermis,"telomerase-deficient G1 Terc-/- mice, TPA-treated skin, FIG. 1c,d",did not show increased percentage
same,percentage of cells with the longest telomeres at the hair bulge,"telomerase-deficient G1 Terc-/- mice, TPA-treated vs untreated skin, FIG. 1c",reduction
same,total number of epidermal cells showing the longest telomeres,"telomerase-deficient G1 Terc-/- mice, TPA-treated vs untreated skin, P<0.01, FIG. 1e",decreased
same,frequency of long telomeres in all hair follicle compartments (telomere length histograms),"telomerase-deficient G1 Terc-/- mice, TPA-treated, FIG. 6",decreased frequency of long telomeres
same,total number of epidermal cells showing 1800-3000 a.u. of telomere fluorescence,"wild-type mice, TPA-treated vs untreated skin, P<0.05, FIG. 1e",significantly increased
same,cells with the longest telomeres in the TA compartments (hair bulb and infundibulum),"wild-type mice, TPA-treated vs untreated tail skin",accumulation
same,percentage of the cells with the longest telomeres at the hair bulge,"wild-type mice, TPA-treated vs untreated tail skin, longest telomeres = 1800-3000 a.u. telomere fluorescence",decreased
same,absolute number of cells containing the longest telomeres at the hair bulge,[1],decreased at the hair bulge
same,absolute number of cells containing the longest telomeres in the other epidermal compartments,[1],concomitantly increased
same,frequency of long telomeres in hair bulge cells (telomere length histograms),[2],decreased frequency of long telomeres
same,telomere length in cells located at the TA compartment and the interfollicular epidermis (telomere length histograms),[2],increased telomere length
